According to patent publication US12545660B2, “Crystalline forms of a farnesoid X receptor agonist” (ELI LILLY AND COMPANY, priority 2020, dated 2026):

How the values were obtained:
[1] = target: T1, hFXR (Homo sapiens, UniProt Q96RI1); assay: In Vitro FXR Assay (TK); assay type: cell-based; settings: CV-1 cells transfected with hFXR, hRXR, TK-ECRE-luc and pCMX-YFP; incubated 18 hrs; luminescence
T1 construct: expressed in transfected cells; host or cells: CV-1 cells
T1 sequence (Q96RI1 1-486): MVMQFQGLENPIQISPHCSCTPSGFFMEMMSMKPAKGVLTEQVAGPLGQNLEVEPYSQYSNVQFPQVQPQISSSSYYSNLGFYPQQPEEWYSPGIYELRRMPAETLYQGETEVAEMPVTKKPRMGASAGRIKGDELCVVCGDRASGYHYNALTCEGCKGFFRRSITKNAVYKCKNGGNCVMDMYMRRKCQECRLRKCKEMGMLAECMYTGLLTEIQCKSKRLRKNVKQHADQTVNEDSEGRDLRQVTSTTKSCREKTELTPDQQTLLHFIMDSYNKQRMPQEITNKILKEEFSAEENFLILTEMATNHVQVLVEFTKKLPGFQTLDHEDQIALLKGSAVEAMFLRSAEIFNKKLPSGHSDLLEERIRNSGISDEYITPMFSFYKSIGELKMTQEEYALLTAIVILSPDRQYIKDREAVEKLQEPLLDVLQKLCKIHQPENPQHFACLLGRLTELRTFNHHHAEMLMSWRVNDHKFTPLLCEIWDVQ
T1 sequence (P19793 1-462 partner): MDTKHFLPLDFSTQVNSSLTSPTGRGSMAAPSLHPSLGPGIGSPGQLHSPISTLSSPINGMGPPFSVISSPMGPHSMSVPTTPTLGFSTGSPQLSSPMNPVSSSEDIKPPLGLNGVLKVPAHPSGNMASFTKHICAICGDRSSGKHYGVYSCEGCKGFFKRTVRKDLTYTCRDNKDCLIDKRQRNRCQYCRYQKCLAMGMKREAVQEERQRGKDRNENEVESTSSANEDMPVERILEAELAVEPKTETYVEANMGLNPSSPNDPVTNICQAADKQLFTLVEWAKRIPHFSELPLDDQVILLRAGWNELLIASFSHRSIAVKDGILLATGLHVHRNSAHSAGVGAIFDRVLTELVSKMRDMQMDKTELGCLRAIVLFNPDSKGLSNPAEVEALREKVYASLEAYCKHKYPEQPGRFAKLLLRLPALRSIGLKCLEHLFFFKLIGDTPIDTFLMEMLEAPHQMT
Experimental: Example 10: In Vitro FXR Assay (TK)
CV-1 were seeded at a density of 2,000,000 cells in a T175 flask with DMEM+10% charcoal double-stripped FBS and incubated at 37° C. in 5% CO2 for 18 h (O/N).
After 18 h of incubation, the medium in the T175 flask was changed with fresh DMEM+10% charcoal super-stripped serum. In a polypropylene tube, 2500 μL OptiMEM (Life Technologies, Cat #31985-062) was combined with expression plasmids for hFXR, hRXR, TK-ECRE-luc and pCMX-YFP. The tube was then briefly vortexed and incubated at room temperature for 5 minutes. Transfection reagent (X-tremeGENE HP from Roche, Cat #06 366 236 001) was added to the OptiMEM/plasmid mixture vortexed and incubated at room temperature for 20 minutes. Following incubation, the transfection reagent/DNA mixture complex was added to cells in the T175 flask and the cells were incubated at 37° C. in 5% CO2 for 18 h (O/N).
Compound 1 was serially diluted in DMSO and added to transfected CV-1 cells. The cells were then incubated for 18 hrs. The next day cells were lysed and examined for luminescence. Compound 1 TK hFXR: EC50≤0.01 μM.

[2] = Dynamic Vapor Sorption (DVS); assay type: physicochemical; settings: for water content at 95% RH (DVS) / hygroscopicity (DVS): 25° C.; for water content at 95% RH (DVS): two complete sorption/desorption cycles; for hygroscopicity (DVS): DVS isotherm
Experimental: Sorption isotherms were obtained using a SMS DVS Intrinsic moisture sorption analyzer, controlled by DVS Intrinsic Control software v1.0.1.2 (or v1.0.1.3). The sample temperature was maintained at 25° C. by the instrument controls. The humidity was controlled by mixing streams of dry and wet nitrogen, with a total flow rate of 200 ml/min. The relative humidity (RH) was measured by a calibrated Rotronic probe (dynamic range of 1.0-100% RH), located near the sample. The weight change, (mass relaxation) of the sample as a function of % RH was constantly monitored by the microbalance (accuracy ±0.005 mg).

Row | EC50 [1] [nM] | water content at 95% RH (DVS) [2] [%] | hygroscopicity (DVS) [2] | changes in the XRPD pattern of post-DVS samples [2] | SMILES
1 | ≤ 10 |  |  |  | COc1ccc(C23CCC(CN(c4cc(-c5cnn(C(C)(C)C)c5)ccn4)C(=O)[C@H]4CC[C@H](OC(=O)N5CC(O)C5)CC4)(CC2)CC3)cc1C [Compound 1, 4-((4-(1-(tert-butyl)-1H-pyrazol-4-yl)pyridin-2-yl)((4-(4-methoxy-3-methylphenyl)bicyclo[2.2.2]octan-1-yl)methyl)carbamoyl)cyclohexyl 3-hydroxyazetidine-trans-1-carboxylate]
2 |  | 1.2 | only slightly hygroscopic | no significant changes | COc1ccc(C23CCC(CN(c4cc(-c5cnn(C(C)(C)C)c5)ccn4)C(=O)[C@H]4CC[C@H](OC(=O)N5CC(O)C5)CC4)(CC2)CC3)cc1C [Form 1 of Compound 1, 4-((4-(1-(tert-butyl)-1H-pyrazol-4-yl)pyridin-2-yl)((4-(4-methoxy-3-methylphenyl)bicyclo[2.2.2]octan-1-yl)methyl)carbamoyl)cyclohexyl 3-hydroxyazetidine-trans-1-carboxylate]
3 |  | 1.0 | only slightly hygroscopic | no significant changes | COc1ccc(C23CCC(CN(c4cc(-c5cnn(C(C)(C)C)c5)ccn4)C(=O)[C@H]4CC[C@H](OC(=O)N5CC(O)C5)CC4)(CC2)CC3)cc1C [Form 2 of Compound 1, 4-((4-(1-(tert-butyl)-1H-pyrazol-4-yl)pyridin-2-yl)((4-(4-methoxy-3-methylphenyl)bicyclo[2.2.2]octan-1-yl)methyl)carbamoyl)cyclohexyl 3-hydroxyazetidine-trans-1-carboxylate]
4 |  | 1.2 | only slightly hygroscopic | no significant changes | COc1ccc(C23CCC(CN(c4cc(-c5cnn(C(C)(C)C)c5)ccn4)C(=O)[C@H]4CC[C@H](OC(=O)N5CC(O)C5)CC4)(CC2)CC3)cc1C [Form 3 of Compound 1, 4-((4-(1-(tert-butyl)-1H-pyrazol-4-yl)pyridin-2-yl)((4-(4-methoxy-3-methylphenyl)bicyclo[2.2.2]octan-1-yl)methyl)carbamoyl)cyclohexyl 3-hydroxyazetidine-trans-1-carboxylate]
5 |  | 1.9 | only slightly hygroscopic | no significant changes | COc1ccc(C23CCC(CN(c4cc(-c5cnn(C(C)(C)C)c5)ccn4)C(=O)[C@H]4CC[C@H](OC(=O)N5CC(O)C5)CC4)(CC2)CC3)cc1C [Form 4 of Compound 1, 4-((4-(1-(tert-butyl)-1H-pyrazol-4-yl)pyridin-2-yl)((4-(4-methoxy-3-methylphenyl)bicyclo[2.2.2]octan-1-yl)methyl)carbamoyl)cyclohexyl 3-hydroxyazetidine-trans-1-carboxylate]
